Common to all, as to experiment: inhibition of tumour cell growth, NCI panel, 48 h
Test [1] concerns MDA-MB-435.
Test [2] concerns M14 melanoma.
Test [3] relates to SNB-75 CNS.
For test [4], the system named is SW-620 colon.
Test [5] relates to NCI/ADR-RES ovarian.
Test [6] has as its system NCI-H23 lung.
For test [7], the system named is DU-145 prostate.
Test [8] concerns SNB-19 CNS.
For test [9], the system named is HOP-92 NSCLC.
Test [10] concerns A498 renal.

Several values for one entry are separate records, joined by “and”; a condition that tells them apart may be missing. Equal values may be shown once.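 96-well plates; 48 h exposure; 5 concentrations. Endpoints by linear interpolation between flanking doses. Not reached: highest tested concentration assigned. GI50 = concentration required for 50% inhibition of growth. TGI: concentration producing complete growth inhibition.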

With `Nc1ccccc1C#Cc1ccccc1C#Cc1cnccn1`, the GI50 is 3.48 µM in [1]; 16 µM in test [2]; 24.6 µM in [3]; 17.3 µM in test [4]; 16.2 µM in test [5]; 16.8 µM in test [6]. Further, the GI50 was 14.5 µM in test [7] and 20.1 µM in test [8]. In addition, the TGI came to 13.6 µM in [1]; 29.5 µM in [2]; 84.8 µM in test [3]; 31.7 µM in [4]; 37.4 µM in test [5]; 30.5 µM in [6]. In addition, the TGI came out at 28.1 µM in test [7] and 40.5 µM in test [8].
As for `CC#CC(=O)N1CC[C@@H](n2c(=O)n(-c3ccc(Oc4ccccc4)cc3)c3c(N)ncnc32)C1`, the GI50 in test [1] is 27.4 µM; in [3], 29.8 µM; in test [9], 16.4 µM; in [4], 47.6 µM; in [5], 24.2 µM; in [6] it was 36.8 µM. Further, the GI50 in test [7] was 33.5 µM; in [10], 6.38 µM; in test [8], 37.4 µM. Besides, the TGI is over 100 µM in [1]; over 100 µM in test [3]; 68.1 µM in [9]; over 100 µM in test [4]; over 100 µM in [5]; over 100 µM in [6]. For the same compound, the TGI was over 100 µM in test [7], 44.6 µM in test [10] and over 100 µM in test [8].
As for `COc1cnc2c(c1)C(=O)c1c-2n(CCCNC(C)C)c(=O)c2cc([N+](=O)[O-])ccc12`, the GI50 is 0.109 µM in test [1]; 0.0347 µM in test [2]; 0.0696 µM in [3]; 1.09 µM in test [9]; 0.0393 µM in [4]; 0.0343 µM in test [5]. For the same compound, the GI50 in test [6] was 0.0401 µM; in test [7], 0.0502 µM; in test [8], 0.0423 µM. Besides, the TGI in test [1] turned out to be 0.261 µM; in test [2], 0.135 µM; in [3], 0.48 µM; in [9] it was 2.82 µM; in test [4], 0.643 µM; in test [5], 0.267 µM. The TGI in [6] was 0.285 µM; in test [7], 0.403 µM; in test [8], 0.896 µM.
Turning to `Cn1sc2ccccc2c1=S`, the TGI in test [2] stood at 22.2 µM; in [3] it was 17.4 µM; in test [9], 36.1 µM; in test [4] it was 5.2 µM; in test [5], 9.38 µM; in [6] it was 34.7 µM. Further, the results for the TGI in test [10] and in test [8] were 99 µM and 31.4 µM, respectively.
Regarding `CCCCCCNCCCNc1c2ccccc2nc2cccc([N+](=O)[O-])c12`, the TGI in test [1] is 0.0226 µM and 0.0234 µM; in [2], 0.0247 µM and 0.0205 µM; in test [3], 0.181 µM and 0.237 µM; in test [9], 0.0792 µM and 0.0693 µM; in [4], 0.115 µM and 0.734 µM; in test [5], 1.66 µM and 2.8 µM. The TGI in [6] was 0.0253 µM and 0.0599 µM; in [10], 0.321 µM and 0.327 µM. Also, the GI50 is 0.065 µM in test [3]; 0.54 µM in test [5]; 0.0159 µM in test [6]; 0.0931 µM in test [10]; 0.017 µM in [8].
Regarding `CC(C)(C)c1cc(-c2nc3c(F)c(F)c(F)c(F)c3[nH]2)cc(C(C)(C)C)c1O`, the GI50 in test [1], in [2], in test [3], in [9], in test [4] and in [5] was over 100 µM throughout. Also, the GI50 in [7], in [10] and in [8] was over 100 µM in each case. The TGI in test [1], in test [2], in test [3], in [9], in [4] and in test [5] was over 100 µM in each case. The TGI in test [7], in test [10] and in test [8] was over 100 µM in each case.
For `Nc1ncnc2c1ncn2C1OC(COC2C(CO)OC(OC(C(=O)O)C(O)C(OP(=O)(O)O)C(O)C(=O)O)C(O)C2O)C(O)C1O` (stereo not given), the TGI in [1], in test [2], in test [3], in test [4], in test [6] and in test [10] was over 100 µM each time. This compound also yielded a TGI in [8] of over 100 µM.
As for `CSC1(CC(=O)N2CCCCC2)C(=O)Nc2ccccc21` (stereo not given), the TGI in [1], in [2], in [3], in test [4], in test [5] and in [6] was over 100 µM each time. Further, the TGI in [7], in test [10] and in [8] was over 100 µM throughout.
Consider `Fc1cccc(-c2[nH]nc3nc(Nc4cccnc4)sc23)c1`, for which the GI50 is 0.28 µM in [1]; 11.3 µM in test [2]; over 100 µM in [3]; over 100 µM in test [9]; 35.6 µM in [4]; 1.83 µM in [5]. Also, the GI50 is 23 µM in [6], 4.71 µM in test [7] and over 100 µM in test [10]. In addition, the TGI in test [1], in test [2], in test [3], in test [9], in [4] and in [5] was over 100 µM each time. Moreover, the TGI in [6] is over 100 µM; in test [7], 24.8 µM; in test [10], over 100 µM.
